Laboratory results reported in ChEMBL document CHEMBL3872201, “Synthesis and antiproliferative activity of a natural like glycoconjugate polycyclic compound” (2016).
Active and inactive are the calls of the source. No cut-off for these calls is given here.

Assays:
[1] = Cell cycle arrest in human MDA-MB-231 cells assessed as cell enlargement at 5 to 10 uM after 8 days by light microscopic analysis; type: functional, cell-based
[2] = Antiproliferative activity against human TK10 cells after 48 hrs by sulforhodamine B assay; type: functional; conditions: TK-10, 48 h
[3] = Antiproliferative activity against human SK-MEL-28 cells after 48 hrs by sulforhodamine B assay; type: functional; conditions: SK-MEL-28, 48 h
[4] = Antiproliferative activity against human OVCAR5 cells after 48 hrs by sulforhodamine B assay; type: functional; conditions: OVCAR-5, 48 h
MDA-MB-231 [5] = assay: Effect on cell cycle regulatory protein in human MDA-MB-231 cells assessed as cyclin B1 level at 5 uM after 24 hrs by Western blot analysis relative to control; type: functional
[6] = Cell cycle arrest in human MDA-MB-231 cells assessed as accumulation at G0/G1 phase at 10 uM after 72 hrs by propidium iodide staining based flow cytometric analysis (reference value: 69.3%); type: functional
[7] = Antiproliferative activity against human HCT15 cells after 48 hrs by sulforhodamine B assay; type: functional; conditions: HCT-15, 48 h
[8] = Antiproliferative activity against human UO31 cells after 48 hrs by sulforhodamine B assay; type: functional; conditions: UO-31, 48 h
[9] = Cell cycle arrest in human MDA-MB-231 cells assessed as accumulation at subG0/G1 phase at 5 uM after 48 hrs by propidium iodide staining based flow cytometric analysis (reference value: 8.8%); type: functional
[10] = Antiproliferative activity against human NCI-H460 cells after 48 hrs by sulforhodamine B assay; type: functional; conditions: NCI-H460, 48 h
[11] = Antiproliferative activity against human OVCAR4 cells after 48 hrs by sulforhodamine B assay; type: functional; conditions: OVCAR-4, 48 h
MDA-MB-231 [12] = assay: Effect on cell cycle regulatory protein in human MDA-MB-231 cells assessed as p21 level at 10 uM after 48 hrs by Western blot analysis relative to control; type: functional
[13] = Cell cycle arrest in human MDA-MB-231 cells assessed as cell flattening at 5 to 10 uM after 8 days by light microscopic analysis; type: functional, cell-based
[14] = Antiproliferative activity against human RXF393 cells after 48 hrs by sulforhodamine B assay; type: functional; conditions: RXF 393, 48 h
[15] = Antiproliferative activity against human COLO205 cells after 48 hrs by sulforhodamine B assay; type: functional; conditions: COLO 205, 48 h
[16] = Antiproliferative activity against human NCI-H226 cells after 48 hrs by sulforhodamine B assay; type: functional; conditions: NCI-H226, 48 h
[17] = Antiproliferative activity against human ACHN cells after 48 hrs by sulforhodamine B assay; type: functional
MDA-MB-231 [18] = assay: Cytotoxicity against human MDA-MB-231 cells assessed as inhibition of cell viability after 48 hrs by MTT assay relative to control; type: functional, cell-based
[19] = Antiproliferative activity against human 786-0 cells after 48 hrs by sulforhodamine B assay; type: functional; conditions: 786-0, 48 h
[20] = Cell cycle arrest in human MDA-MB-231 cells assessed as accumulation at G0/G1 phase at 5 uM after 72 hrs by propidium iodide staining based flow cytometric analysis (reference value: 69.3%); type: functional
[21] = Antiproliferative activity against human BT549 cells after 48 hrs by sulforhodamine B assay; type: functional; conditions: BT-549, 48 h
[22] = Antiproliferative activity against human HOP62 cells after 48 hrs by sulforhodamine B assay; type: functional; conditions: HOP-62, 48 h
[23] = Antiproliferative activity against human SK-MEL-2 cells after 48 hrs by sulforhodamine B assay; type: functional; conditions: SK-MEL-2, 48 h
[24] = Antiproliferative activity against human Hs 578T cells after 48 hrs by sulforhodamine B assay; type: functional
MDA-MB-231 [25] = assay: Effect on cell cycle regulatory protein in human MDA-MB-231 cells assessed as cyclin B1 level at 10 uM after 24 hrs by Western blot analysis relative to control; type: functional
[26] = Cell cycle arrest in human MDA-MB-231 cells assessed as accumulation at G2/M phase at 5 uM after 72 hrs by propidium iodide staining based flow cytometric analysis (reference value: 19.7%); type: functional
[27] = Antiproliferative activity against human MALME-3M cells after 48 hrs by sulforhodamine B assay; type: functional
[28] = Cell cycle arrest in human MDA-MB-231 cells assessed as accumulation at G2/M phase after 96 to 120 hrs by propidium iodide staining based flow cytometric analysis; type: functional
[29] = Cell cycle arrest in human MDA-MB-231 cells assessed as accumulation at G0/G1 phase at 10 uM after 48 hrs by propidium iodide staining based flow cytometric analysis (reference value: 67%); type: functional
[30] = Antiproliferative activity against human SK-MEL-5 cells after 48 hrs by sulforhodamine B assay; type: functional; conditions: SK-MEL-5, 48 h
[31] = Antiproliferative activity against human HT-29 cells after 48 hrs by sulforhodamine B assay; type: functional; conditions: HT-29, 48 h
[32] = Antiproliferative activity against human CCRF-CEM cells after 48 hrs by sulforhodamine B assay; type: functional
[33] = Cell cycle arrest in human MDA-MB-231 cells assessed as accumulation at G2/M phase at 10 uM after 48 hrs by propidium iodide staining based flow cytometric analysis (reference value: 19.5%); type: functional
[34] = Cell cycle arrest in human MDA-MB-231 cells assessed as accumulation at subG0/G1 phase at 10 uM after 72 hrs by propidium iodide staining based flow cytometric analysis (reference value: 6.3%); type: functional
[35] = Antiproliferative activity against human HOP92 cells after 48 hrs by sulforhodamine B assay; type: functional; conditions: HOP-92, 48 h
[36] = read-out: LC50 (the source's name)

## C=C1c2c(C)nn(-c3ccc(C#CCO[C@@H]4O[C@H](CO)[C@@H](O)[C@H](O)[C@H]4O)cc3)c2N(C)C23CC1C1(C)c4c(C)nn(-c5ccc(C#CCO[C@@H]6O[C@H](CO)[C@@H](O)[C@H](O)[C@H]6O)cc5)c4N(C)C(C)(CC12)C3 (stereo partly specified)
[1]
  Activity: Active
[2]
  GI50: 2.01 µM
  TGI: 4.04 µM
[2]; [36]
  CC50: 8.09 µM
[3]
  GI50: 1.9 µM
  TGI: 3.52 µM
[3]; [36]
  CC50: 6.5 µM
[4]
  GI50: 1.78 µM
  TGI: 3.54 µM
[4]; [36]
  CC50: 7.05 µM
MDA-MB-231 [5]
  fold change (FC): 0.9
[6]
  Activity: 61.8%
[7]
  GI50: 1.57 µM
  TGI: 3.45 µM
[8]
  GI50: 2.83 µM
  TGI: 10.1 µM
[8]; [36]
  CC50: 31.8 µM
[9]
  Activity: 2.1%
[10]
  GI50: 1.69 µM
  TGI: 3.85 µM
[10]; [36]
  CC50: 8.77 µM
[11]
  GI50: 1.68 µM
  TGI: 9.94 µM
[11]; [36]
  CC50: 31.8 µM
MDA-MB-231 [12]
  fold change (FC): 2
[13]
  Activity: Active
[14]
  GI50: 1.62 µM
  TGI: 3.52 µM
[14]; [36]
  CC50: 7.63 µM
[15]
  GI50: 1.47 µM
  TGI: 2.88 µM
[15]; [36]
  CC50: 5.63 µM
[16]
  GI50: 1.62 µM
  TGI: 3.7 µM
[16]; [36]
  CC50: 8.46 µM
[17]
  GI50: 2.42 µM
  TGI: 10.6 µM
[17]; [36]
  CC50: 32.5 µM
MDA-MB-231 [18]
  inhibition: Dose-dependent effect
[19]
  GI50: 2.66 µM
  TGI: 7.78 µM
[19]; [36]
  CC50: 29.6 µM
[20]
  Activity: 74%
[21]
  GI50: 1.3 µM
  TGI: 2.97 µM
[21]; [36]
  CC50: 6.77 µM
[22]
  GI50: 1.49 µM
  TGI: 2.88 µM
[22]; [36]
  CC50: 5.57 µM
[23]
  GI50: 1.76 µM
  TGI: 3.39 µM
[23]; [36]
  CC50: 6.55 µM
[24]
  GI50: 0.47 µM
  TGI: 9.85 µM
[24]; [36]
  CC50: 100 µM
MDA-MB-231 [25]
  fold change (FC): 0.7
[26]
  Activity: 18.7%
[27]
  GI50: 1.87 µM
  TGI: 3.66 µM
[27]; [36]
  CC50: 7.17 µM
[28]
  Activity: Active
[29]
  Activity: 61.3%
[30]
  GI50: 1.38 µM
  TGI: 2.71 µM
[30]; [36]
  CC50: 5.31 µM
[31]
  GI50: 1.63 µM
  TGI: 4.21 µM
[31]; [36]
  CC50: 16.1 µM
[32]
  GI50: 1.04 µM
  TGI: 5.03 µM
[32]; [36]
  CC50: > 100 µM
[33]
  Activity: 31.1%
[34]
  Activity: 1.6%
[35]
  GI50: 0.43 µM
  TGI: 2.52 µM
[35]; [36]
  CC50: 8.63 µM
